Laboratory results published in paper PMC3837394 (Advances in Protein Chemistry and Structural Biology, 2012).

Legend:
Experiment in all cases: colorimetric ELISA-like DNMT activity assay
Format in all cases: biochemical
full-length human DNMT1 [1] = molecular target: T1, full-length human DNMT1 (Homo sapiens, UniProt P26358); conditions: read-out: % inhibition at 100 μM
murine Dnmt3a = murine Dnmt3a (Mus musculus, UniProt O88508)
full-length human DNMT1 [2] = molecular target: T1, full-length human DNMT1

T1 sequence (P26358 whole entry): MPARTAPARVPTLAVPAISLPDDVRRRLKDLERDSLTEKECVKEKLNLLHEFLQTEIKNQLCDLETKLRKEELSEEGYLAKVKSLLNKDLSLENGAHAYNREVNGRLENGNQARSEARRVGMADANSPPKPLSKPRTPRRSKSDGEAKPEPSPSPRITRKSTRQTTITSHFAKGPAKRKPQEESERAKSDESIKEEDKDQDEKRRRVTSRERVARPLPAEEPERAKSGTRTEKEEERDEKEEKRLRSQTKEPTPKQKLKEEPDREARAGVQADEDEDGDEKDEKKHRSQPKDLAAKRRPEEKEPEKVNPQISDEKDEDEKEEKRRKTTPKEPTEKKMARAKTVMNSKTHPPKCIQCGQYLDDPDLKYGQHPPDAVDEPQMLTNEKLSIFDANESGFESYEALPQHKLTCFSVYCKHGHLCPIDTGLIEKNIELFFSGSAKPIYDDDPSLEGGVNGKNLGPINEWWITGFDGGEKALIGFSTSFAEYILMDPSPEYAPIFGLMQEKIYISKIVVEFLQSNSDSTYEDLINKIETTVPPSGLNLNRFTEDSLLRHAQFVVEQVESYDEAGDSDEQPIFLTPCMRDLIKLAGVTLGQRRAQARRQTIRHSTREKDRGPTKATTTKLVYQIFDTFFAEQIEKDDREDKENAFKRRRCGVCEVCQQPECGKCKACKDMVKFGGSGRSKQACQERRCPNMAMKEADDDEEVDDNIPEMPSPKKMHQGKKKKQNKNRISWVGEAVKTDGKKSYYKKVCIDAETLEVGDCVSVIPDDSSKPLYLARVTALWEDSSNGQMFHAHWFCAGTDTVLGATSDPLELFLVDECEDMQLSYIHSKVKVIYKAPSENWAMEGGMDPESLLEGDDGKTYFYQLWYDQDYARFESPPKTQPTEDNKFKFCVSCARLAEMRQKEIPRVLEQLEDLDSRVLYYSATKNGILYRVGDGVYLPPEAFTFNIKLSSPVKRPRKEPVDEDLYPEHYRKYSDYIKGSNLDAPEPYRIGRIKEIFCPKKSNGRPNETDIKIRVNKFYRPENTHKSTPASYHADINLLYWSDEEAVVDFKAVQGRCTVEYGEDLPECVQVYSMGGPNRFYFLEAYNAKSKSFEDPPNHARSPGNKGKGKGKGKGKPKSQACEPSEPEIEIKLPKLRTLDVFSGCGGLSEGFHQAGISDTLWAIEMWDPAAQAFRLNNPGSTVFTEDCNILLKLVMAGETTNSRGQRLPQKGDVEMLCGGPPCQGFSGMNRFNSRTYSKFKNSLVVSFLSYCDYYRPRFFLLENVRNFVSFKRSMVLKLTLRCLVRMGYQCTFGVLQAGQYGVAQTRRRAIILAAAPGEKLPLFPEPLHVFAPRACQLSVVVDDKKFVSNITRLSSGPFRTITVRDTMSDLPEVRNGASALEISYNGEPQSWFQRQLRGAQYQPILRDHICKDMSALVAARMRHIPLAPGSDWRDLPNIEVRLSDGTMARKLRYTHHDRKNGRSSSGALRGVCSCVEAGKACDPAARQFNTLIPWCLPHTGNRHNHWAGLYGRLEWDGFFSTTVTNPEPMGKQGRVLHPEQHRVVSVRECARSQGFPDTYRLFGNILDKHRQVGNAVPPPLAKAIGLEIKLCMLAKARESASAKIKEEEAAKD

For `O=C(O)[C@H](Cc1c[nH]c2ccccc12)N1C(=O)c2ccccc2C1=O` [RG108], the inhibition at 100 µM (full-length human DNMT1 [1]) was 11%.

In the case of `O=C(O)C1=CC(=C(c2ccc(O)c(C(=O)O)c2)c2ccc(O)c(C(=O)O)c2)C=CC1=O` [aurintricarboxylic acid], the IC50 (murine Dnmt3a) is reported as 1400 nM and the IC50 (full-length human DNMT1 [2]) is reported as 680 nM.

For `O=C(O[C@@H]1Cc2c(O)cc(O)cc2O[C@@H]1c1cc(O)c(O)c(O)c1)c1cc(O)c(O)c(O)c1` [EGCG], the IC50 (full-length human DNMT1 [2]) was 700 nM.
